US20240189307A1, “METHODS OF STABILIZING THE NEURONAL PROTEOME AGAINST COLLAPSE AND PROTECTING VASCULAR CELLS” (ALBERT EINSTEIN COLLEGE OF MEDICINE, priority 2021, published 2024)

Tested on: PS19 mice (tau P301S)
Test: PS19 mouse model of Frontotemporal dementia-related proteotoxicity, oral daily CA
Format: in vivo
Experimental: FIG. 11. Chemical activation of CMA improves behavior and neuropathology in a mouse model of Frontotemporal dementia-related proteotoxicity. (A) Schematic of regimen of CMA activator (CA) administration to mice overexpressing human P301S tau (PS19). (B, C) Spontaneous locomotion in an open field of 9-month-old CTR or PS19 mice administered vehicle (Veh) or CA. Representative tracks (B) and total distance traveled in 10 min (C). (D-H) Immunostaining for MC1 tau in the hippocampus, the amygdala and the piriform cortex of 9 months old CTR, PS19 +/− CA. Representative images of the indicated brain regions (D). Scale bars: hippocampus: 500 μm, amygdala and piriform cortex: 200 μm. Quantification of the area stained in the hippocampus (E), (F-J) Immunoblots for tau and phosphorylated tau. Representative immunoblots and densitometric quantifications for the indicated proteins: S422-phosphorylated tau (G), S202/T205-phosphorylated tau (AT8) (H), MC1 tau (I) and total tau (J). (K-M) Immunostaining for Iba1 (K) and quantification of average cell size in the hippocampus (L) and the piriform cortex (M). Scale bars: hippocampus: 500 μm and piriform cortex: 200 μm. Data are mean+s.e.m. Individual values are shown for n=9-10 mice per genotype and treatment in C, E, G-M). Comparisons were made using one-way ANOVA followed by Tukey's post-hoc analysis (C, E, G, I-M) or Kruskal-Wallis test followed by Dunn's post hoc test (H). *p<0.05, **p<0.005, ***p<0.0005.
Male wild-type mice (C57BL/6J) or transgenic for CaMKIIα-Cre (B6.Cg-Tg(Camk2α-cre)T29-1Stl/J, Jackson Laboratory), LAMP-2A^flox/flox (Schneider et al., 2014), Tau^P301L (line pR5), Tg (APP^Swe; PS2^N141I; Tau^P301L), PS19 (Tau^P301S) (Yoshiyama et al., 2007) and Atg7^f/f were used in the study. Conditional LAMP-2A deletion was generated by breeding LAMP-2A^flox/flox with the transgenic Cre mice of interest. Knockout for L2A in the whole body (L2A^−/−) was generated by insemination of a wild-type female with spermatozoids with L2A floxed to excise this gene in all tissues in the offspring. Male littermate wild type and only L2A^f/f were separately analyzed for each test and because no differences were detected among them, they were grouped in the results as “control” (CTR) for the experimental group (^CamKII[…] CreL2A^f/f or L2A^−/−). All mice were genotyped at weaning and genotyping was re-confirmed postmortem to correct for any possible misplacement during husbandry. Mice were all in the C57BL/6J background and maintained under specific pathogen-free conditions in ventilated cages with no more than 5 mice per cage. Only males were used in this study due to the complexity in generating the quadruple transgenic mouse model with L2A knock out in homozygosis (for which we took advantage of the location of the Lamp2 gene in the X chromosome). Age of the animals was 4-6 months in most experiments except when otherwise indicated in text, figures and figure legends. Animals were maintained at 19-23° C. in 12 h light/dark cycle. Mice were fed ad libitum. CA77.1 was administered as sucralose jelly pellets for a daily dose of 30 mg/Kg body weight whereas the vehicle treated group received the same sucralose jelly pellet without drug. Briefly, for preparation of the jelly pellets the final amount of the compound per day (adjusted per animal weight) was dissolved in ethanol and then mixed with a warm gelatin solution (100 mg/ml, 10 mg/ml sucralose in water), that was poured into 24 well flat bottom plates for solidification. To avoid animal stress and competition for the pellets, animals were separated with a grid spacer in the same cage that they were housed, eating of the pellet was monitored and the spacer was removed as soon as all mice consumed the pellet (average time 2 min). Sentinel animals were included in each study to determine brain exposure at the end of treatment. These animals received the same batch of jelly pellets in parallel to the experimental group. […]

In the case of `CC(=O)Nc1ccc(-c2cnc3cc(Cl)ccc3n2)cc1` [CA77.1], the “spontaneous locomotion in open field (locomotor hyperactivity)” value (30 mg/kg body weight oral daily for 6 months from 3 months of age) is reported as “normalized the previously described locomotor hyperactivity of PS19 mice to control levels”, the “immunoblot levels of aberrant, phosphorylated, oligomeric and insoluble tau” value (30 mg/kg oral daily, 6 months) is reported as “lower levels of conformationally aberrant, S422 and AT8 phosphorylated, oligomeric and insoluble forms of tau” and the “total levels of human tau” value (30 mg/kg oral daily, 6 months) is reported as “did not reduce total levels of human tau”. For the same compound, the “number of microglial cells and large Iba1-positive dystrophic cells” value (hippocampus and piriform cortex, 30 mg/kg oral daily, 6 months) was “reduced upon CA treatment”, the “MC1 pathogenic tau conformations, levels and number of neurons” value (hippocampus, amygdala and piriform cortex, 30 mg/kg oral daily, 6 months) was “reduced the levels and number of neurons containing pathogenic tau conformations” and the “mice with tau Type III pathology (S202/T205, AT8 staining)” value (hippocampus, 30 mg/kg oral daily, 6 months, vehicle 60%) was 10%.
